Source: PubChem BioAssay (NCI)
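Values below derive from 48-hour exposures of cells grown in 96-well plates, with endpoints linearly interpolated between the two concentrations bracketing the appropriate inhibition level. At the GI50, growth is halved. At the TGI there is no net growth.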

Columns and labels:
Test in all cases: growth of human tumour cells (NCI), 48 h
[1] = tested on: OVCAR-3 ovarian
[2] = tested on: EKVX NSCLC
[3] = tested on: HCT-116 colon
[4] = tested on: SF-539 CNS
[5] = tested on: LOX IMVI melanoma
[6] = tested on: SF-295 CNS
[7] = tested on: MDA-MB-435
[8] = tested on: BT-549 breast
[9] = tested on: NCI-H522 lung
[10] = tested on: MCF7 breast
[11] = tested on: MOLT-4 leukemia
[12] = tested on: OVCAR-5 ovarian
[13] = tested on: DU-145 prostate
[14] = tested on: NCI-H460 lung
[15] = tested on: PC-3 prostate
[16] = tested on: HL-60(TB) leukemia
[17] = tested on: ACHN renal
[18] = tested on: CCRF-CEM leukemia
[19] = tested on: UACC-62 melanoma
[20] = tested on: HS 578T breast
[21] = tested on: UO-31 renal
[22] = tested on: A549 NSCLC
[23] = tested on: SN12C renal
[24] = tested on: SR leukemia
[25] = tested on: MDA-MB-468 breast
[26] = tested on: RPMI-8226 leukemia
[27] = tested on: M14 melanoma
[28] = tested on: HOP-92 NSCLC
[29] = tested on: SF-268 CNS

In the case of `COc1ccc(C(=O)/C=C/c2cccc(Cl)c2Cl)cc1S(N)(=O)=O`, the GI50 [1] is reported as 1.8 µM, the TGI [1] is reported as 4.42 µM and the GI50 [2] is reported as 10.3 µM. It also gave a TGI [2] of 20.9 µM, a GI50 [3] of 1.31 µM and a TGI [3] of 2.72 µM. It also gave a GI50 [4] of 1.41 µM, a TGI [4] of 2.61 µM and a GI50 [5] of 1.38 µM. For the same compound, the TGI [5] was 2.54 µM, the GI50 [6] was 3.89 µM and the TGI [6] was 14.7 µM. It also gave a GI50 [7] of 9.65 µM, a TGI [7] of 20.7 µM and a GI50 [8] of 4.73 µM. It also gave a TGI [8] of 17 µM, a GI50 [9] of 3.01 µM and a TGI [9] of 12.6 µM. For the same compound, the GI50 [10] was 3.17 µM, the TGI [10] was 13.7 µM and the GI50 [11] was 2.09 µM. It also gave a TGI [11] of 6 µM, a GI50 [12] of 1.91 µM and a TGI [12] of 5.78 µM. It also gave a GI50 [13] of 2.86 µM, a TGI [13] of 10.2 µM and a GI50 [14] of 1.89 µM. It also gave a TGI [14] of 4.94 µM, a GI50 [15] of 4.49 µM and a TGI [15] of 16.6 µM. For the same compound, the GI50 [16] was 7.84 µM, the TGI [16] was 34.2 µM and the GI50 [17] was 1.77 µM. For the same compound, the TGI [17] was 3.9 µM, the GI50 [18] was 5.74 µM and the TGI [18] was 33.3 µM. For the same compound, the GI50 [19] was 4.85 µM, the TGI [19] was 16.2 µM and the GI50 [20] was 8.64 µM. The TGI [20] was 32.1 µM, the GI50 [21] was 1.48 µM and the TGI [21] was 3.51 µM. It also gave a GI50 [22] of 2.52 µM, a TGI [22] of 9.42 µM and a GI50 [23] of 1.82 µM. For the same compound, the TGI [23] was 3.91 µM, the GI50 [24] was 1.54 µM and the TGI [24] was 5.36 µM. The GI50 [25] was 2.93 µM, the TGI [25] was 13.1 µM and the GI50 [26] was 2.88 µM. The TGI [26] was 16.2 µM, the GI50 [27] was 9.52 µM and the TGI [27] was 21 µM. The GI50 [28] was 5.44 µM, the TGI [28] was 17.2 µM and the GI50 [29] was 3.45 µM. It also gave a TGI [29] of 14.5 µM.
